The values that follow come from ChEMBL document CHEMBL5528012, “Discovery of novel deoxyvasicinone derivatives with benzenesulfonamide substituents as multifunctional agents against Alzheimer's disease” (Eur J Med Chem, 2024).

As usually defined, the IC50 is the concentration at which inhibition is half-maximal. Usually Papp stands for a coefficient for how fast a substance crosses the barrier. A lower Papp goes with poor permeation.

The target in data set [1] is Acetylcholinesterase (Homo sapiens, UniProt P22303). Briefly: Inhibition of AChE (unknown origin).
Chain of Acetylcholinesterase (Homo sapiens, UniProt P22303) (P22303 whole entry): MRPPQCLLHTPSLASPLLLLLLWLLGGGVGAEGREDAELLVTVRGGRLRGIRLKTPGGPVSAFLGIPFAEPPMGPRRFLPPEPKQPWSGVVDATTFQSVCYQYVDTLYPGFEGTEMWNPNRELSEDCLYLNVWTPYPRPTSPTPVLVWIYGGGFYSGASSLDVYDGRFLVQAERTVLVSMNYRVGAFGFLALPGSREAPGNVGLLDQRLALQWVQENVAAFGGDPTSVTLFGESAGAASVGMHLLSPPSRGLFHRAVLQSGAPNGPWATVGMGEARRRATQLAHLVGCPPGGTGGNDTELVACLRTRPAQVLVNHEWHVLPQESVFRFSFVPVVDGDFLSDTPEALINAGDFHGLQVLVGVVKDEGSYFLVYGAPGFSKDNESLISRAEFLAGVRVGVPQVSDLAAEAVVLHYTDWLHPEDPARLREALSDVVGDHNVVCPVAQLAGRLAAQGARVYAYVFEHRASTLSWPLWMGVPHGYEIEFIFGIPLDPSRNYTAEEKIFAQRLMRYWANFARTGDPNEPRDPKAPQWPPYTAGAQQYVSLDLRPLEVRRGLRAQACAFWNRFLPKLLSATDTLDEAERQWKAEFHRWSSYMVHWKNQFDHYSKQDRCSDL
Data set [2] addresses Acetylcholinesterase (Electrophorus electricus, UniProt O42275). Nature of the data set: Inhibition of electric eel AChE using acetylthiocholine iodide as substrate pre-incubated for 30 mins followed by substrate addition and measured after 5 mins by DTNB reagent based Ellman's method. A general note: Ellman's reagent forms a yellow product with free thiols.
In data set [3] the target is Cholinesterase (Equus caballus, UniProt P81908). Nature of the data set: Inhibition of equine serum BuChE using S-butyrylthiocholine iodide as substrate pre-incubated for 30 mins followed by substrate addition and measured after 5 mins by DTNB reagent based Ellman's method.
Chain of Cholinesterase (P81908 whole entry, the tested form may be a part): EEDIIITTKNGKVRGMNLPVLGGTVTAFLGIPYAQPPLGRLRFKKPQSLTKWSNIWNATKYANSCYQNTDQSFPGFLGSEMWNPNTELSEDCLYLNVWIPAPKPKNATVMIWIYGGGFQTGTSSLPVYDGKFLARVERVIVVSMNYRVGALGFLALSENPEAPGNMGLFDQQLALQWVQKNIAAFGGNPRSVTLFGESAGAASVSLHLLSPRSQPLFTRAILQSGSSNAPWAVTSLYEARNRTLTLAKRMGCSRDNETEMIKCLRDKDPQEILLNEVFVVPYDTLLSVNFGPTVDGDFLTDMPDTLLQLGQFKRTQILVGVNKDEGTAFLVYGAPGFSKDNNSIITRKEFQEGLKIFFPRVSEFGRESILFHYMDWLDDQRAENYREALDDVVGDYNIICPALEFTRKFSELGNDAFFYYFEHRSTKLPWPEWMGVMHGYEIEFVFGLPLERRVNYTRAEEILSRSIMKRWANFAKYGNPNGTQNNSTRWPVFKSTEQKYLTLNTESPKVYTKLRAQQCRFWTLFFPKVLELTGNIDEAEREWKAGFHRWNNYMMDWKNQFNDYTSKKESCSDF
Data set [4] is described as follows: in vitro. The following applies: PAMPA, pH 7.4. (In general: The PAMPA barrier holds no transporters, so it reflects passive diffusion.)
Description: Permeability of the compound at 30 to 50 uM at pH 7.4 by PAMPA-BBB assay

Chain of Acetylcholinesterase (Electrophorus electricus, UniProt O42275) (O42275 whole entry): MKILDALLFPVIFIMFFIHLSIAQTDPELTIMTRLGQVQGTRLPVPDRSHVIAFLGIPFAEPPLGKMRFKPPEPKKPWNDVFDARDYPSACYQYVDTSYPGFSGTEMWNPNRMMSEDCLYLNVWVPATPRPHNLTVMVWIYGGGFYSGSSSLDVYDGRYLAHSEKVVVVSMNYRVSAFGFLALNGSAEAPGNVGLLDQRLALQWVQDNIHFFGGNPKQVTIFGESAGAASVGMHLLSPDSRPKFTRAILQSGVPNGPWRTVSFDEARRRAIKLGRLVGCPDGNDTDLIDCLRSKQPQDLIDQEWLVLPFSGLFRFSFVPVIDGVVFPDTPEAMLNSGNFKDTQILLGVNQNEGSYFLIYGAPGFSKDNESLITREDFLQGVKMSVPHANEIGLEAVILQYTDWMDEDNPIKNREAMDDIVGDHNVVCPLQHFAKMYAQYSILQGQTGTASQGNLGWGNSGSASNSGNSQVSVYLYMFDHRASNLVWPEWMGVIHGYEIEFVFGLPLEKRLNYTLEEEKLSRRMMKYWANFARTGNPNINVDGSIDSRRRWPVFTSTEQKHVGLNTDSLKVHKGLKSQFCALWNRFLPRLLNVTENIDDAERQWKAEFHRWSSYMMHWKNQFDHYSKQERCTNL

In the case of `COc1ccc2[nH]c(C(=O)Nc3ccc4nc5n(c(=O)c4c3)CCC5)cc2c1`, half-maximal inhibition in data set [1] (IC50) was put at 0.12 µM.
In the case of `CC(C)c1ccc(S(=O)(=O)NCC(=O)Nc2ccc3c(=O)n4c(nc3c2)CCC4)cc1`, the IC50 was 12.5 µM in data set [2] and over 50 µM in data set [3].
Taken in the same sequence, the figures for `O=C(CNS(=O)(=O)c1ccc(Br)cc1)Nc1ccc2c(=O)n3c(nc2c1)CCC3` were over 50 µM and over 50 µM.
On the same counts, the results for `O=C(CNS(=O)(=O)c1cccc(OC(F)(F)F)c1)Nc1ccc2c(=O)n3c(nc2c1)CCC3` are over 50 µM and over 50 µM.
As to `O=C(CNS(=O)(=O)c1ccc(F)cc1)Nc1ccc2c(=O)n3c(nc2c1)CCC3`, the results for the IC50 in data set [2] and in data set [3] were 5.68 µM and over 50 µM, respectively.
For the compound `CC(C)c1cc(C(C)C)c(S(=O)(=O)NCC(=O)Nc2ccc3c(=O)n4c(nc3c2)CCC4)c(C(C)C)c1`, the IC50 in data set [2] and in data set [3] was over 50 µM in each case.
For the compound `O=C(CNS(=O)(=O)c1cc(Cl)c(F)cc1F)Nc1ccc2c(=O)n3c(nc2c1)CCC3`, the IC50 in data set [2] and in data set [3] was over 50 µM in each case.
In the case of `O=C(CNS(=O)(=O)c1ccc(F)c(Cl)c1)Nc1ccc2c(=O)n3c(nc2c1)CCC3`, the figures for the IC50 in data set [2] and in data set [3] were 8.08 µM and over 50 µM, respectively.
Turning to `Cc1ccc(S(=O)(=O)NCC(=O)Nc2ccc3c(=O)n4c(nc3c2)CCC4)cc1`, the figures for the IC50 in data set [2] and in data set [3] were 17.6 µM and over 50 µM, respectively.
For the compound `CCCc1ccc(S(=O)(=O)NCC(=O)Nc2ccc3c(=O)n4c(nc3c2)CCC4)cc1`, the IC50 in data set [2] and in data set [3] was over 50 µM throughout.
On to `O=C(CNS(=O)(=O)c1cccc(Cl)c1)Nc1ccc2c(=O)n3c(nc2c1)CCC3`, for which the IC50 was 3.98 µM in data set [2] and over 50 µM in data set [3].
Regarding `O=C(CNS(=O)(=O)c1cccc(F)c1)Nc1ccc2c(=O)n3c(nc2c1)CCC3`, the half-maximal inhibitory concentration (IC50) in data set [2] was 4.43 µM; in data set [3], over 50 µM.
Regarding `O=C(CNS(=O)(=O)c1c(Cl)cccc1Cl)Nc1ccc2c(=O)n3c(nc2c1)CCC3`, the values for the IC50 in data set [2] and in data set [3] were 4.06 µM and 47.7 µM, respectively.
Taken in the same sequence, the figures for `O=C(CNS(=O)(=O)c1cccc(C(F)(F)F)c1)Nc1ccc2c(=O)n3c(nc2c1)CCC3` were 20.9 µM and over 50 µM.
Taken in the same sequence, the figures for `O=C(CNS(=O)(=O)c1ccccc1Br)Nc1ccc2c(=O)n3c(nc2c1)CCC3` were 4.17 µM and over 50 µM.
On the same counts, the results for `O=C(CNS(=O)(=O)c1ccc(OC(F)(F)F)cc1)Nc1ccc2c(=O)n3c(nc2c1)CCC3` are over 50 µM and over 50 µM.
As for `CCc1ccc(S(=O)(=O)NCC(=O)Nc2ccc3c(=O)n4c(nc3c2)CCC4)cc1`, the 50% inhibitory concentration (IC50) is 31.7 µM in data set [2] and over 50 µM in data set [3].
Consider `O=C(CNS(=O)(=O)c1ccccc1)Nc1ccc2c(=O)n3c(nc2c1)CCC3`, for which the half-inhibitory concentration (IC50) in data set [2] was 5.39 µM; in data set [3] it was 48.5 µM.
Take `NS(=O)(=O)c1cc2c(cc1Cl)N=CNS2(=O)=O` [CHLOROTHIAZIDE]: the Papp at 50 µM in data set [4] stood at 1.36 ×10⁻⁶ cm/s.
On to `O=C(CNS(=O)(=O)c1ccccc1OC(F)(F)F)Nc1ccc2c(=O)n3c(nc2c1)CCC3`, for which the IC50 in data set [2] is 0.78 µM; in data set [3], over 50 µM.
With `COc1ccc(S(=O)(=O)NCC(=O)Nc2ccc3c(=O)n4c(nc3c2)CCC4)c(OC)c1`, the 50% inhibitory concentration (IC50) is 9.19 µM in data set [2] and over 50 µM in data set [3].
With `COc1ccc(S(=O)(=O)NCC(=O)Nc2ccc3c(=O)n4c(nc3c2)CCC4)cc1`, the IC50 in data set [2] was 5.58 µM; in data set [3], 32.9 µM.
On the same counts, the results for `O=C(CNS(=O)(=O)c1ccc(C(F)(F)F)cc1)Nc1ccc2c(=O)n3c(nc2c1)CCC3` are 24.8 µM and over 50 µM.
Taken in the same sequence, the figures for `O=C(CNS(=O)(=O)c1ccccc1Cl)Nc1ccc2c(=O)n3c(nc2c1)CCC3` were 2.57 µM and over 50 µM.
On the same counts, the results for `COc1ccc(S(=O)(=O)NCC(=O)Nc2ccc3c(=O)n4c(nc3c2)CCC4)cc1OC` are 10.4 µM and over 50 µM.
As to `O=C(CNS(=O)(=O)c1cc(Br)cc(C(F)(F)F)c1)Nc1ccc2c(=O)n3c(nc2c1)CCC3`, the IC50 in data set [2] and in data set [3] was over 50 µM in each case.
Regarding `O=C(CNS(=O)(=O)c1ccccc1F)Nc1ccc2c(=O)n3c(nc2c1)CCC3`, the 50% inhibitory concentration (IC50) in data set [2] is 5.25 µM; in data set [3], over 50 µM.
In the case of `O=C(CNS(=O)(=O)c1cccc(Br)c1)Nc1ccc2c(=O)n3c(nc2c1)CCC3`, the values for the half-maximal inhibitory concentration (IC50) in data set [2] and in data set [3] were 7.88 µM and over 50 µM, respectively.
In data set [4], `CNC(=C[N+](=O)[O-])NCCSCc1ccc(CN(C)C)o1` [RANITIDINE] had a Papp at 50 µM of 0.06 ×10⁻⁶ cm/s.
With `COc1ccc(Br)cc1S(=O)(=O)NCC(=O)Nc1ccc2c(=O)n3c(nc2c1)CCC3`, the IC50 in data set [2] was 5.22 µM; in data set [3] it was over 50 µM.
Take `O=C(CCCCN1CCN(Cc2ccccc2)CC1)Nc1ccc2nc3n(c(=O)c2c1)CCC3`: in data set [1], half-maximal inhibition (IC50) was put at 0.00329 µM.
With `O=C(CNS(=O)(=O)c1ccc(Cl)cc1)Nc1ccc2c(=O)n3c(nc2c1)CCC3`, the figures for the IC50 in data set [2] and in data set [3] were 48.3 µM and over 50 µM, respectively.
Taken in the same sequence, the figures for `O=C(CNS(=O)(=O)c1c(F)cccc1F)Nc1ccc2c(=O)n3c(nc2c1)CCC3` were 5.12 µM and over 50 µM.
On the same counts, the results for `CC(C)(C)c1ccc(S(=O)(=O)NCC(=O)Nc2ccc3c(=O)n4c(nc3c2)CCC4)cc1` are over 50 µM and over 50 µM.
On the same counts, the results for `O=C(CNS(=O)(=O)c1cc(Cl)cc(Cl)c1)Nc1ccc2c(=O)n3c(nc2c1)CCC3` are over 50 µM and over 50 µM.
